Literature values in US20050281872A1, “Enhanced compliance antiviral medicaments and methods of manufacture and use” (priority 2004, published 2005).

Key:
[1] = taking antacids containing magnesium, aluminum, and simethicone
[2] = patients receiving ribavirin antiviral therapy
[3] = ribavirin powder

| Molecule | solubility in alcohol (alcohol) | solubility in water (water) | decrease in available ribavirin [1] | effectiveness in treating hepatitis C (hepatitis C virus (HCV); ribavirin alone, without interferon) | patients requiring a reduction in dose or discontinuation of therapy because of side effects [2] | dissolution time in water [3] | patients who responded positively (hepatitis C virus (HCV); high dose of interferon for six months) |
| --- | --- | --- | --- | --- | --- | --- | --- |
| NC(=O)c1ncn([C@@H]2O[C@H](CO)[C@@H](O)[C@H]2O)n1 [ribavirin] | only sparingly soluble | freely soluble | 14% | not effective | up to 20% | almost instantaneous | – |
| interferon | – | – | – | – | – | – | nearly half |
